Reference: ChEMBL document CHEMBL1201862, “PubChem BioAssay data set” (2004)
Active and inactive are the calls of the source.

What was measured:
[1] = target: Delta-type opioid receptor (Homo sapiens, UniProt P41143); test: Counterscreen for agonists of heterodimerization of the mu 1 (OPRM1) and delta 1 (OPRD1) opioid receptors: Luminescence-based cell-based high throughput dose response assay to identify agonists of OPRD1 homodimerization. [Related pubchem assays (depositor defined):AID504326, AID504355, AID504692, AID504904, AID504905]; format: functional
Sequence of Delta-type opioid receptor (P41143 whole entry): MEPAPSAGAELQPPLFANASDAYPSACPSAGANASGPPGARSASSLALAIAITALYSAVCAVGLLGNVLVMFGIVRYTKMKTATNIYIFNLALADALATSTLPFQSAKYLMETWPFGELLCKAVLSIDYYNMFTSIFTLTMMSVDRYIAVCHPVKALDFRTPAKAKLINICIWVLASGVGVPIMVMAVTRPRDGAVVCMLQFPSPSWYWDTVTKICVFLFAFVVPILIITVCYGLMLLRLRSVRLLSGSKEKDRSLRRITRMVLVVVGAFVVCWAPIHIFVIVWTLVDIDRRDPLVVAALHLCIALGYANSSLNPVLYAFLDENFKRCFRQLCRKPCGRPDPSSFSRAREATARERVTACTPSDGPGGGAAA

[2] = target: T1, Short transient receptor potential channel 4 (Mus musculus, UniProt Q9QUQ5); test: calcium entry via TRPC4 opening agents – cell-based, HEK293 TRPC4/mu-opioid, Fluo-4 calcium, dose response (AID 434937); format: functional
T1 sequence (Q9QUQ5 whole entry): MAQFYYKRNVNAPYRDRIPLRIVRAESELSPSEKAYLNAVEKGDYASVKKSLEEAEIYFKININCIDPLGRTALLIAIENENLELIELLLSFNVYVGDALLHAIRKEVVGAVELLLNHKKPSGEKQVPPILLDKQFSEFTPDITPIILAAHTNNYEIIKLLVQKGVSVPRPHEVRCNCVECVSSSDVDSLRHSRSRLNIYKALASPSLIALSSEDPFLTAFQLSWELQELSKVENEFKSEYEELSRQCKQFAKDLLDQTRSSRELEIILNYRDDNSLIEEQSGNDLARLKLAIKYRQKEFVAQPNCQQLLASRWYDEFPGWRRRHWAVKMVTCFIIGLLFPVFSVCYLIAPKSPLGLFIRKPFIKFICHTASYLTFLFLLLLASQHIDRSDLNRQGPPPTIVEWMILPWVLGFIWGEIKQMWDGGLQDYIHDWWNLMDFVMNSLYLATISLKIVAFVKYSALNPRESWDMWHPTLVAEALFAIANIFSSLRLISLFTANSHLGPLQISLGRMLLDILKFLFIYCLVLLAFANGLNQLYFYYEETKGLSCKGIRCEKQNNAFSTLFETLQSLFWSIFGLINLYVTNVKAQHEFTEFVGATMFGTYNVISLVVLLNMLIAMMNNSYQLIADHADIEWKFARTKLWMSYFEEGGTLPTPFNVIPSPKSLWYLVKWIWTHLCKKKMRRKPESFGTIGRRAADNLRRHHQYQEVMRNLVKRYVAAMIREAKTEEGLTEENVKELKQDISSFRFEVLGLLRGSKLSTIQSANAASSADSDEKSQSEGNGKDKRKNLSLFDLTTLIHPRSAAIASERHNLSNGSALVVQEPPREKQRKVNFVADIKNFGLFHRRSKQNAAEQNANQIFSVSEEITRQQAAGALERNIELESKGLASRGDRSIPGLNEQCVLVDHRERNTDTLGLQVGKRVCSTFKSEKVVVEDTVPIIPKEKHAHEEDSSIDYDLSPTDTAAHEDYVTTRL

Mu-type opioid receptor = Mu-type opioid receptor (Homo sapiens, UniProt P35372); test: Counterscreen for agonists of heterodimerization of the mu 1 (OPRM1) and delta 1 (OPRD1) opioid receptors: Luminescence-based cell-based high throughput dose response assay to identify agonists of OPRM1 homodimerization.; format: functional;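 further: U2OS cells expressing OPRM1 and beta-arrestin as split beta-galactosidase partners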
Sequence of Mu-type opioid receptor (P35372 whole entry): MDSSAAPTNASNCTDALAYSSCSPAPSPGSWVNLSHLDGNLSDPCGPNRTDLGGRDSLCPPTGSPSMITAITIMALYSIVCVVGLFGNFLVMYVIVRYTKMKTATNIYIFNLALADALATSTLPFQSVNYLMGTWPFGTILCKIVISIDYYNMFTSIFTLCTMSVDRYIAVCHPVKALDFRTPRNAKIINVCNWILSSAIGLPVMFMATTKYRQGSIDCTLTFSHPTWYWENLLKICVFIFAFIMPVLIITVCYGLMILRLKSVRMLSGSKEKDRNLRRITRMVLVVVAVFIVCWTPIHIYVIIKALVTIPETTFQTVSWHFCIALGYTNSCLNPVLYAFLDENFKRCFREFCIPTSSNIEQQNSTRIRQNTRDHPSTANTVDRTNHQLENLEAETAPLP

[3] = target: 5-hydroxytryptamine receptor 5A (Homo sapiens, UniProt P47898); test: Counterscreen for agonists of OPRM1-OPRD1 heterodimerization: luminescence-based cell-based high throughput dose response assay to identify agonists of 5-hydroxytryptamine (serotonin) 5A receptor (HTR5A). [Related pubchem assays (depositor defined):AID504326, AID504355, AID504692, AID504904, AID504905]; format: functional
Sequence of 5-hydroxytryptamine receptor 5A (P47898 whole entry): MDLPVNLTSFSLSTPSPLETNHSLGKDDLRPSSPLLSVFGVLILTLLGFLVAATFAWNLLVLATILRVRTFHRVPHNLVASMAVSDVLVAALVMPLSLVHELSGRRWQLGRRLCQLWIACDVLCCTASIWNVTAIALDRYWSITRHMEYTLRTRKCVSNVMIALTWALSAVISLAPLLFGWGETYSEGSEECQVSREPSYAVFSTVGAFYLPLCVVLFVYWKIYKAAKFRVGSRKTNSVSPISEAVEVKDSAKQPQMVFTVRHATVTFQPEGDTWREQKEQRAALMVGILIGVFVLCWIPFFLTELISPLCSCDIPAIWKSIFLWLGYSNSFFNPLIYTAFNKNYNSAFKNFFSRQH

[4] = target: Opioid receptors; mu & delta (Homo sapiens, UniProt P41143+P35372); test: OPRM1-OPRD1 heterodimer agonist potency – cell-based, luminescence, dose response (AID 588407); format: functional
Cytochrome P450 1A2 = target: T2, Cytochrome P450 1A2 (Homo sapiens, UniProt P05177);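 further: PubChem cytochrome P450 panel assay, CYP1A2 panel member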
T2 sequence (P05177 whole entry): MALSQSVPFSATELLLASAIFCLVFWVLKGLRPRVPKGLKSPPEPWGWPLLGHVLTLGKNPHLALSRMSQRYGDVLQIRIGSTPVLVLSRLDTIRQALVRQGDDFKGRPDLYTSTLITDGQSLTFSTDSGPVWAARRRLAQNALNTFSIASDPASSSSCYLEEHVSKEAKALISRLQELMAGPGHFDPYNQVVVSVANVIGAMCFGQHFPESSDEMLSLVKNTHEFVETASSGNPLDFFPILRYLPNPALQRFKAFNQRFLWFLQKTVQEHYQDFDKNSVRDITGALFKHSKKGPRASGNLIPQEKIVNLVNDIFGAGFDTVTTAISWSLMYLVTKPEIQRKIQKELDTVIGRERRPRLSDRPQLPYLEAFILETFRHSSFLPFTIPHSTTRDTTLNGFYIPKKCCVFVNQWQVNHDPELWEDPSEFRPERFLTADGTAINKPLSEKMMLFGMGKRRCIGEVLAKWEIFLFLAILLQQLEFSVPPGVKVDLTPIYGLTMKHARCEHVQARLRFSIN

Cytochrome P450 2C9 = Cytochrome P450 2C9 (Homo sapiens, UniProt P11712)
Sequence of Cytochrome P450 2C9 (P11712 whole entry): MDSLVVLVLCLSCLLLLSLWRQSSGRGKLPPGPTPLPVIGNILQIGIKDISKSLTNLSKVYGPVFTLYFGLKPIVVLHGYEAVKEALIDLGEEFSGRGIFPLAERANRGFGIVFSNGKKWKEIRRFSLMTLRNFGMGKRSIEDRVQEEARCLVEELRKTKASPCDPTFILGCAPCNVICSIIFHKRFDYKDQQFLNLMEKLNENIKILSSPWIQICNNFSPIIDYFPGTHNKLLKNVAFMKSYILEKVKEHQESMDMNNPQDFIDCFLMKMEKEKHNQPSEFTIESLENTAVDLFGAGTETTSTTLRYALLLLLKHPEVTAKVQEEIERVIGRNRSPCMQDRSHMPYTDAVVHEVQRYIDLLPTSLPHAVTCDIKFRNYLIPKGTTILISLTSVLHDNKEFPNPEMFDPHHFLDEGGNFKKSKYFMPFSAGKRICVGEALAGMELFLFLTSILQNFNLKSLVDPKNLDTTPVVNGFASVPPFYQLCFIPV

Cytochrome P450 2C19 = Cytochrome P450 2C19 (Homo sapiens, UniProt P33261); test: Cytochrome panel assay with activity outcomes. Panel member name: p450-cyp2c19 Compounds with AC50 equal or less than 10 uM are considered active; format: functional
Sequence of Cytochrome P450 2C19 (P33261 whole entry): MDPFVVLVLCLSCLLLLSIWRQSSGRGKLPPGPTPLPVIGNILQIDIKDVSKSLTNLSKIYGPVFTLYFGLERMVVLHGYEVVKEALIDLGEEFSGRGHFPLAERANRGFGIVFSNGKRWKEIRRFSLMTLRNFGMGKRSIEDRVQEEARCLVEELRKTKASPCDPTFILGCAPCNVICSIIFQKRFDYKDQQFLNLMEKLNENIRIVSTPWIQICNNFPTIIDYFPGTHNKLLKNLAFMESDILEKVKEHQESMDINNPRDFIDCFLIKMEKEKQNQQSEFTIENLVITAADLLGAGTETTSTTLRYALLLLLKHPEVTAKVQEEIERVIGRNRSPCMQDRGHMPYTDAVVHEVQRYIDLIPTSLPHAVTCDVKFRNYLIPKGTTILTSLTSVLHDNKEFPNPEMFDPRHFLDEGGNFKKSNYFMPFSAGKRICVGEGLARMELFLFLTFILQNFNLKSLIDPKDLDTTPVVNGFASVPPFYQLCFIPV

Cytochrome P450 3A4 = Cytochrome P450 3A4 (Homo sapiens, UniProt P08684);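 further: CYP3A4 tested as one member of a cytochrome P450 panel screen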
Sequence of Cytochrome P450 3A4 (P08684 whole entry): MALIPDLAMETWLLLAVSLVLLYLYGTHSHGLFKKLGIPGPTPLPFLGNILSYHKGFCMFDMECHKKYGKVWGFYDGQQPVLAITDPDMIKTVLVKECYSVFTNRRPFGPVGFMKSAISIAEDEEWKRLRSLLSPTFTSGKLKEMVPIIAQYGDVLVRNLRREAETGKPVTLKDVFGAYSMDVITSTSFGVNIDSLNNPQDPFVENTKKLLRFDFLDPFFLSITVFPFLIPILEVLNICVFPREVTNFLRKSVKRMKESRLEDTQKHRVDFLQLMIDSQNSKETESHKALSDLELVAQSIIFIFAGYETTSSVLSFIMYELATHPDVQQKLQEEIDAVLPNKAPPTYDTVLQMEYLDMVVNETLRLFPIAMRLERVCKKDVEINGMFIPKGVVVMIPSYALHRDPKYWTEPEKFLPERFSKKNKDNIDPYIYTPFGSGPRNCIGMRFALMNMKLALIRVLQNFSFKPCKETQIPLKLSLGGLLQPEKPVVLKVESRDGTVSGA

Cytochrome P450 2D6 = Cytochrome P450 2D6 (Homo sapiens, UniProt P10635);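 further: CYP2D6 member of a cytochrome P450 panel assay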
Sequence of Cytochrome P450 2D6 (P10635 whole entry): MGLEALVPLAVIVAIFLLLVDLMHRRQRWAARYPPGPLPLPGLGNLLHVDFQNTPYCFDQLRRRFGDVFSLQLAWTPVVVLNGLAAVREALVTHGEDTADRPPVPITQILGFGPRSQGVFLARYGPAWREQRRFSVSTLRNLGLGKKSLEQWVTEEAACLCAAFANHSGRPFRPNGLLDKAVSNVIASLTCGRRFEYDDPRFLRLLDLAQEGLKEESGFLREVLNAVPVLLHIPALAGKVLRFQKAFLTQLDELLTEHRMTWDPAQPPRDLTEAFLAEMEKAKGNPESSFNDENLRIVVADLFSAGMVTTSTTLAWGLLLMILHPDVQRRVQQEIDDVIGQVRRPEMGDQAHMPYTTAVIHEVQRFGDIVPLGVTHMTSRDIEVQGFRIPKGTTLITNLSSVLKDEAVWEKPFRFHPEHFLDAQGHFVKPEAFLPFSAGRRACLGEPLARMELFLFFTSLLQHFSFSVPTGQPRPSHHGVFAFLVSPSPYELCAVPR

[5] = Luminescence Cell-Based Dose Retest to Confirm Inhibitors of Cancer Stem Cells. [Related pubchem assays (depositor defined):AID2717, AID2721]; format: functional; settings: Homo sapiens
[6] = tested on: Streptococcus sp. 'group A'; test: Streptococcus pyogenes SK(-)GAS viability under kanamycin – luminescence, BacTiterGlo, confirmation, counter-screen for streptokinase expression inhibitor project, dose response (AID 1900); format: functional, organism-based
[7] = viability loss of HMLE_sh_eGFP cells – cell-based, luminescence, counter-screen for HMLE_sh_ECad selective toxicity project, dose response (AID 463074); format: functional, Homo sapiens;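 further: HMLE human mammary epithelial cells expressing control shRNA against eGFP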
Streptococcus = test: GAS UMAA2166 growth inhibition – luminescence, BacTiterGlo, counter-screen for streptokinase expression inhibitor project, dose response (AID 1915); format: functional, organism-based;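 further: potency for reduction of bacterial viability or growth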
[8] = Luminescence Cell-Based Secondary HTS screen to identify cytotoxic compounds of NIH3T3 cells. [Related pubchem assays: 1885, 1968 ]; format: functional
[9] = NIH3T3 cell viability loss – ATP luminescence, mouse fibroblasts, counter-screen, dose response (AID 2010); format: functional, cell-based;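 further: cells exposed to compound for about 90 hours before reading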
[10] = T. cruzi infection blockers in NIH3T3 cells – beta-gal luminescence, NIH3T3 host cells, confirmation (AID 2630); format: functional, cell-based; settings: Mus musculus
[11] = Trypanosoma cruzi growth suppression in host cells – NIH3T3 host cells, beta-gal luminescence, confirmation (AID 2044); format: functional, cell-based;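 further: intracellular parasites grown in NIH/3T3 mouse fibroblasts as host cells; luminescent beta-galactosidase reporter signal from transgenic T. cruzi replicating inside host cells; inhibitors lower the luminescence signal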
[12] = Luminescence Cell-Based/Microorganism Confirmation at Dose of Inhibitors of Trypanosoma cruzi Infection. [Related pubchem assays: 1885, 1968 ]; format: functional
[13] = target: Dual specificity tyrosine-phosphorylation-regulated kinase 1A (Rattus norvegicus, UniProt Q63470); format: biochemical, Homo sapiens
[14] = target: T3, Rac GTPase-activating protein 1 (Homo sapiens, UniProt Q9H0H5); test: blockers of MgcRacGAP-driven Rac1 GTP hydrolysis – biochemical, ADP Hunter fluorescence, primary and confirmatory, confirmation (AID 624330); format: functional
T3 sequence (Q9H0H5 whole entry): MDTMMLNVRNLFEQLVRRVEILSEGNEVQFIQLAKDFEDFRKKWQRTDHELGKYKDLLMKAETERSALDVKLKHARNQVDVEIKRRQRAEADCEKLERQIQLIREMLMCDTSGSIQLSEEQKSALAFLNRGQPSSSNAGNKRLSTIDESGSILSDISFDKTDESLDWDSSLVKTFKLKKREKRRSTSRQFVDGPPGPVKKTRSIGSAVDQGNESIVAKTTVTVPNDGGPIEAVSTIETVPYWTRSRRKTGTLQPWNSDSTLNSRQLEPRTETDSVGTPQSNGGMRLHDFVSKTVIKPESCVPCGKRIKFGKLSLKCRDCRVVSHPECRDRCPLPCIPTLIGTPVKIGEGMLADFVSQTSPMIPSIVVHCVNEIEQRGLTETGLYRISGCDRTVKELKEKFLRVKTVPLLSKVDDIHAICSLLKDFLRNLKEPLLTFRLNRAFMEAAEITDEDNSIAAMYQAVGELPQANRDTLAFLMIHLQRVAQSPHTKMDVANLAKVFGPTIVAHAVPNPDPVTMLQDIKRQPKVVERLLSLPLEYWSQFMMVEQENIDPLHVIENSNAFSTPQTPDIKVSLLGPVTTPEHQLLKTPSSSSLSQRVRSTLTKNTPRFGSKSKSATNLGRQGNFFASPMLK

[15] = target: T4, Serine/threonine-protein phosphatase (Candida dubliniensis (strain CD36 / CBS 7987 / NCPF 3949 / NRRLY-17841) (Yeast), UniProt B9W6M3); test: Fluorescence Cell-Based Secondary Assay to Identify Inhibitors of Calcineurin. [Related pubchem assays (depositor defined):AID1979, AID2007]; format: functional
T4 sequence (B9W6M3 whole entry): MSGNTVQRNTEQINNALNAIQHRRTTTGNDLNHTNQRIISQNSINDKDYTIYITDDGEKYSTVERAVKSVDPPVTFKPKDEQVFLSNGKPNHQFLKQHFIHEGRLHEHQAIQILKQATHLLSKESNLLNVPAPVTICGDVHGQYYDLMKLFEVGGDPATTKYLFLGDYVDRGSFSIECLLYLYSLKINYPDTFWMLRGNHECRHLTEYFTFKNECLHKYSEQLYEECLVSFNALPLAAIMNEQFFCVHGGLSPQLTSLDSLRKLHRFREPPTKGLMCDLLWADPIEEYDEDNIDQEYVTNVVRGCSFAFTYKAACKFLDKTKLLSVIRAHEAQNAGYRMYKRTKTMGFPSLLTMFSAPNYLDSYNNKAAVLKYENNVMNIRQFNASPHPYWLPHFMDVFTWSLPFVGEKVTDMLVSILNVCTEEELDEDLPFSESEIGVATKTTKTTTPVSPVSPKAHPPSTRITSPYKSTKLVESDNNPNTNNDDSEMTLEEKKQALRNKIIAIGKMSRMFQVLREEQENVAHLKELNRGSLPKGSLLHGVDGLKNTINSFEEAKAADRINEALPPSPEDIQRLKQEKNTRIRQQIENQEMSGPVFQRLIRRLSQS

[16] = fluconazole-exposed Candida albicans growth modulators – fluorescence, retest, confirmation (AID 2467); format: functional, cell-based
[17] = target: T4, Serine/threonine-protein phosphatase; test: blockers of CaCl2-induced CDRE-lacZ signaling – S. cerevisiae, luminescence, secondary, dose response (AID 2388); format: functional, cell-based;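 further: yeast reporter cells carrying a calcineurin-responsive lacZ construct stimulated with calcium chloride; luminescent beta-galactosidase reporter signal in whole cells rather than isolated phosphatase activity; potency for inhibition where a drop in reporter signal means calcineurin blockade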
[18] = NIH-3T3 fibroblast cytotoxicity, dose response, cytotoxicity control, cell-based, fluorescence, Alamar Blue, secondary assay (AID 2327); format: functional;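 further: NIH-3T3 mouse fibroblasts cultured with fluconazole at 8 µg/mL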
[19] = target: Heat shock protein HSP 90-alpha (Homo sapiens, UniProt P07900); format: functional, organism-based
[20] = target: Dual specificity protein kinase CLK1 (Homo sapiens, UniProt P49759); test: inhibition of human CLK1 activity – biochemical, cherry-picked samples, selectivity assay for Dyrk1A inhibitor project, dose response (AID 588811)
Sequence of Dual specificity protein kinase CLK1 (P49759 whole entry): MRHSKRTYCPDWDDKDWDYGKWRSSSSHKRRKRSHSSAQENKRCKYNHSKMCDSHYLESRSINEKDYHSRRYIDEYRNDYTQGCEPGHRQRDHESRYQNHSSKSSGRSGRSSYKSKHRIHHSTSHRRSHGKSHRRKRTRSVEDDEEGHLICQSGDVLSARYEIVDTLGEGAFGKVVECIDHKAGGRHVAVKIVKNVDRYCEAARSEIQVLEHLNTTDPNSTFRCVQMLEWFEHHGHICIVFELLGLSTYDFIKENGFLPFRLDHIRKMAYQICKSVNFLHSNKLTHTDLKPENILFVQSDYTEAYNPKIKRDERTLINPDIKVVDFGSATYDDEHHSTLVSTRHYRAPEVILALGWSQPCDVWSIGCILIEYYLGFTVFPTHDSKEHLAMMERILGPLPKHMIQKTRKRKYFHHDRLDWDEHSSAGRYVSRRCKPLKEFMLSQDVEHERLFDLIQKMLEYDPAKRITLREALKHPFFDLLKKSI

For `COc1ccc(C2Nc3ccccc3C(=O)N2Cc2ccco2)cc1COc1ccc(NC(C)=O)cc1` (centres undefined), the EC50 [1] was 0.0173 µM (active), the EC50 [2] was 0.149 µM (active) and the EC50 (Mu-type opioid receptor) was > 92.5 µM (inactive). For the same compound, the EC50 [3] was > 92.5 µM (inactive) and the EC50 [4] was over 0.01406 µM.

In the case of `FC(F)(F)c1cc(CN2CC[C@@]3(CCCNC3)C2)cc(C(F)(F)F)c1`, the AC50 (Cytochrome P450 1A2) is reported as “inconclusive”, the AC50 (Cytochrome P450 2C9) is reported as “inconclusive” and the AC50 (Cytochrome P450 2C19) is reported as “inconclusive”. For the same compound, the AC50 (Cytochrome P450 3A4) was 3.98 µM (inconclusive) and the AC50 (Cytochrome P450 2D6) was “inconclusive”.

In the case of `CCN(c1ccccc1)S(=O)(=O)c1ccc(C(=O)Nc2nnc(-c3ccco3)o2)cc1`, the AC50 [5] is reported as 2.63 µM (active), the EC50 [6] is reported as 1.61 µM (active) and the AC50 [7] is reported as 32.4 µM (active). For the same compound, the EC50 (Streptococcus) was 5.63 µM (active).

For `CCn1ncc(CN2CCCC(C(=O)c3cccc(OC(C)C)c3)C2)c1C` (centres undefined), the EC50 [8] was > 195 µM (not active), the EC50 [9] was > 60 µM (inconclusive) and the EC50 [10] was 0.062 µM (active). For the same compound, the EC50 (cells) was 0.032 µM (active), the EC50 [11] was < 0.1 µM (active) and the EC50 [12] was 0.062 µM (active).

For `Oc1ccc(-c2csc(NCc3ccco3)n2)cc1`, the AC50 [13] was 6.71 µM (active) and the IC50 [14] was 22.1 µM (active).

For `O=C(NNC1=C(C(=O)C(F)(F)F)CCC1)c1ccc(Cl)cc1`, the AC50 [5] was 2.75 µM (active), the EC50 [15] was 13.5 µM (active) and the EC50 [16] was 0.126 µM (active). For the same compound, the EC50 [17] was > 180 µM (inactive), the EC50 [18] was 23.5 µM (active) and the AC50 [19] was 3.37 µM (active).

With `Cc1ccsc1CN(C)c1ncnc2ccc(-c3ccc(CO)o3)cc12` the AC50 [20] was 0.0161 µM (active).
